From ChEMBL document CHEMBL6071157, “Improved N-phenylpyrrolamide inhibitors of DNA gyrase as antibacterial agents for high-priority bacterial strains” (Eur J Med Chem, 2024)
Values after ≈ are worked out from the molar mass of the structure shown.

What was measured:
Staphylococcus aureus [1] = test: Antibacterial activity against Staphylococcus aureus ATCC 29213 assessed as inhibition of bacterial growth by broth microdilution method; format: functional
Enterococcus faecalis = test: Antibacterial activity against Enterococcus faecalis ATCC 29212 assessed as inhibition of bacterial growth by broth microdilution method; format: functional
MCF7 = test: Cytotoxicity against human MCF7 cells assessed as cell viability at 50 uM incubated for 72 hrs by CellTiter 96 aqueous one solution reagent based MTS assay relative to control; format: functional; conditions: read-out: Activity
Enterobacter cloacae = test: Antibacterial activity against Enterobacter cloacae subsp. cloacae ATCC 13047 assessed as inhibition of bacterial growth by broth microdilution method; format: functional
Acinetobacter baumannii = test: Antibacterial activity against Acinetobacter baumannii ATCC 17978 assessed as inhibition of bacterial growth by broth microdilution method; format: functional
[2] = biological target: DNA topoisomerase 2-alpha (Homo sapiens, UniProt P11388); test: Inhibition of human DNA topoisomerase 2-alpha using linear pBR322 as substrate assessed as conversion of NADH to NAD+ by measuring residual activity at 100 uM preincubated for 10 to 15 mins in presence of pyruvate kinase/lactate dehydrogenase mix followed by ATP addition and measured after 30 mins by ATPase assay relative to control; conditions: time 40-55 min
DNA gyrase [3] = biological target: DNA gyrase (Escherichia coli, UniProt P0AES4+P0AES6); test: Inhibition of Escherichia coli DNA gyrase by supercoiling plate assay; format: protein-complex assay
Escherichia coli [4] = test: Antibacterial activity against Escherichia coli ATCC 25922 assessed as inhibition of bacterial growth by broth microdilution method; format: functional
Enterococcus faecium = test: Antibacterial activity against vancomycin-resistant Enterococcus faecium ATCC 700221 assessed as inhibition of bacterial growth by broth microdilution method; format: functional
Klebsiella pneumoniae = test: Antibacterial activity against Klebsiella pneumoniae ATCC 10031 assessed as inhibition of bacterial growth by broth microdilution method; format: functional
DNA gyrase [5] = biological target: DNA gyrase (Staphylococcus aureus, UniProt P0A0K8+P20831); test: Inhibition of Staphylococcus aureus DNA gyrase by supercoiling plate assay; format: protein-complex assay
Staphylococcus aureus [6] = test: Antibacterial against vancomycin-intermediate Staphylococcus aureus ATCC 700699 assessed as inhibition of bacterial growth by broth dilution method; format: functional
Staphylococcus aureus [7] = test: Antibacterial against methicillin resistant Staphylococcus aureus ATCC 43300 assessed as inhibition of bacterial growth by broth microdilution method; format: functional; conditions: time 24 hrs
Pseudomonas aeruginosa = test: Antibacterial activity against Pseudomonas aeruginosa ATCC 27853 assessed as inhibition of bacterial growth by broth microdilution metho; format: functional
[8] = Inhibition of Escherichia coli DNA topoisomerase-IV relaxation plate assay
[9] = Metabolic stability in mouse liver microsomes assessed as intrinsic clearance at 1 uM preincubated for 10 mins followed by NADPH addition and measured after 5 to 60 mins by LC-MS/MS analysis; format: ADME, Microsome; conditions: time 15-70 min, read-out: CLH
[10] = Metabolic stability in human liver microsomes assessed as half life at 1 uM preincubated for 10 mins followed by NADPH addition and measured after 5 to 60 mins by LC-MS/MS analysis; format: ADME, Microsome; conditions: time 15-70 min
[11] = Metabolic stability in human liver microsomes assessed as intrinsic clearance at 1 uM preincubated for 10 mins followed by NADPH addition and measured after 5 to 60 mins by LC-MS/MS analysis; format: ADME, Microsome; conditions: time 15-70 min, read-out: CLH
[12] = Metabolic stability in mouse liver microsomes assessed as half life at 1 uM preincubated for 10 mins followed by NADPH addition and measured after 5 to 60 mins by LC-MS/MS analysis; format: ADME, Microsome; conditions: time 15-70 min
Escherichia coli [13] = test: Inhibition of Escherichia coli DNA topoisomerase-IV assessed as residual activity at 10 uM by relaxation plate assay relative to control

DNA gyrase (Staphylococcus aureus, UniProt P0A0K8+P20831), sequence (P0A0K8 whole entry): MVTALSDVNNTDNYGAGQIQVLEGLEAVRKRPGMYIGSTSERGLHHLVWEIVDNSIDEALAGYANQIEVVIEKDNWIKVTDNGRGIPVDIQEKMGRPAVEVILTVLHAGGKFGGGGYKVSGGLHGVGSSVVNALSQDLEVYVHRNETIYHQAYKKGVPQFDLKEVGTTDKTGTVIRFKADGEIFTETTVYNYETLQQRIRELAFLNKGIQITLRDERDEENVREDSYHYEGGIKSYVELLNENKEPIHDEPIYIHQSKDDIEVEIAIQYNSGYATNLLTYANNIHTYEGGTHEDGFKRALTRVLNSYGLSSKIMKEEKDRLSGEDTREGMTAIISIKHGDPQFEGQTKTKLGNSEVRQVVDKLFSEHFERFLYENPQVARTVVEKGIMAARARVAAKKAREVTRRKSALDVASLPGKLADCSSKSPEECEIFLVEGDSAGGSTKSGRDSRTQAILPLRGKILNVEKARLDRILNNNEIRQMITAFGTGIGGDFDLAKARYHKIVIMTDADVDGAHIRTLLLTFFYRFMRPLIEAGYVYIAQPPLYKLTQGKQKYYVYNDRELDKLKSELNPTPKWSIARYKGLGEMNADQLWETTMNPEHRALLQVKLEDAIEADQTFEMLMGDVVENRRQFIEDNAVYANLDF
DNA gyrase (Staphylococcus aureus, UniProt P0A0K8+P20831), sequence (P20831 whole entry): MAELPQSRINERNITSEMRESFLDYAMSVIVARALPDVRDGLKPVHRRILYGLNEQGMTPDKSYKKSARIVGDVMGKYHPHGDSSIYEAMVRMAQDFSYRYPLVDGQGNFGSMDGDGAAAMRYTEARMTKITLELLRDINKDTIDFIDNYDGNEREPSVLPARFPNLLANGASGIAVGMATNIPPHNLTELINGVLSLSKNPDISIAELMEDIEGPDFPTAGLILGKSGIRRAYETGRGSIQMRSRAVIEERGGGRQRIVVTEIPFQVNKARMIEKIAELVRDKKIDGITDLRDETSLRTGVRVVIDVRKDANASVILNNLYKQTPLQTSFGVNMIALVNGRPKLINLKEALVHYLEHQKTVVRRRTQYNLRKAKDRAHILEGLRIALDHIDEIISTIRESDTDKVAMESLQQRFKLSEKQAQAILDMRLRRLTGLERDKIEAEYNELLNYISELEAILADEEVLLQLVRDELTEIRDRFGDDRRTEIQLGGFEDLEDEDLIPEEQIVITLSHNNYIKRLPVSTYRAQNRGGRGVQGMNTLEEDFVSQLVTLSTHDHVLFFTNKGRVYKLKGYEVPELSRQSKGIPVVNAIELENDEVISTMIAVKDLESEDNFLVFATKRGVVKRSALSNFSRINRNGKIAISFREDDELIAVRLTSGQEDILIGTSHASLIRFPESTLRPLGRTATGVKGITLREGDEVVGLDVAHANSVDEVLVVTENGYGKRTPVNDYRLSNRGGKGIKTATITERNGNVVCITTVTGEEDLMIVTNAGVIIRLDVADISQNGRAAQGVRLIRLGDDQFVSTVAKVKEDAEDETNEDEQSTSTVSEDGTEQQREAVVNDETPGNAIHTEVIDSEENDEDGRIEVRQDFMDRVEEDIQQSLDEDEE
DNA topoisomerase 2-alpha, sequence (P11388 whole entry): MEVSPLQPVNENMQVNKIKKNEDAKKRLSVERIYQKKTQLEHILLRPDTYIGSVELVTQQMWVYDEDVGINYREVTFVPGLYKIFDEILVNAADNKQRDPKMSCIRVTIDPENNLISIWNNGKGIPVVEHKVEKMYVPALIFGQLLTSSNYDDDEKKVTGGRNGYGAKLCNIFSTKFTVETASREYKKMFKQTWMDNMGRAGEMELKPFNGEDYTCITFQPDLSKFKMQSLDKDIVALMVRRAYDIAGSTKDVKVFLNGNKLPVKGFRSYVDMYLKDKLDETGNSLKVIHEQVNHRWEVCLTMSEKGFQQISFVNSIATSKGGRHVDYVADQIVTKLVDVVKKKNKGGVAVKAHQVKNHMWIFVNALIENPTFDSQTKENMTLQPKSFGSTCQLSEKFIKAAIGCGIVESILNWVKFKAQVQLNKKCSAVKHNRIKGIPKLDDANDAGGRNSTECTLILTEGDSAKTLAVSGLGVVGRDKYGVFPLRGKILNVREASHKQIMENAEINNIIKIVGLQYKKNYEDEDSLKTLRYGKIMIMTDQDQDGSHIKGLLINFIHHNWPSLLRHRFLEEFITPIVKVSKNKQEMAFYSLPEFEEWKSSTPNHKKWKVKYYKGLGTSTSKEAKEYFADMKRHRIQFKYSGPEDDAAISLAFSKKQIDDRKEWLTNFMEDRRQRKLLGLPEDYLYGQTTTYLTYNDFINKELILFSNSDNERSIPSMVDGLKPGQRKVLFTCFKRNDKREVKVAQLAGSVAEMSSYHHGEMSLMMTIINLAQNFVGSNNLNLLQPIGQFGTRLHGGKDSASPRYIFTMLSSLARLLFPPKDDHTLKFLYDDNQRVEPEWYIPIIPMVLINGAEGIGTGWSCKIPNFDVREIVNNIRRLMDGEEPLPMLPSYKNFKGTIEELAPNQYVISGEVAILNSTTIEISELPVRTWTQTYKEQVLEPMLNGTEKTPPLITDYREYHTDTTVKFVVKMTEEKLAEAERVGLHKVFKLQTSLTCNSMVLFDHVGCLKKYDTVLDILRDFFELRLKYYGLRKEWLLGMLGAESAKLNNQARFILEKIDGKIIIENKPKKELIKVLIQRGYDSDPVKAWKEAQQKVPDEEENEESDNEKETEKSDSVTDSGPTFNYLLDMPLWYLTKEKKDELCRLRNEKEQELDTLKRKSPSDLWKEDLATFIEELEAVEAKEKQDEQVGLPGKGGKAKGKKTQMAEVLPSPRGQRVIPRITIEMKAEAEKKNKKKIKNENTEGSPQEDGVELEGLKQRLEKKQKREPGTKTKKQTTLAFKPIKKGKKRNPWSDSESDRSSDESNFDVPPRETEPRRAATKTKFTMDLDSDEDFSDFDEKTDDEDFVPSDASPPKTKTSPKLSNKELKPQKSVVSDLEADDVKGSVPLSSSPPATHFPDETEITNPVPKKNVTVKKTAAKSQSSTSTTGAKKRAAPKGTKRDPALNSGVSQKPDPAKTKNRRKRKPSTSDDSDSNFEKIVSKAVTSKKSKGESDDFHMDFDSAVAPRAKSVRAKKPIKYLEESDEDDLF

| SMILES | MIC (Staphylococcus aureus [1]) [µg/mL] | MIC (Enterococcus faecalis) [µg/mL] | viability at 50 µM (MCF7) [%] | MIC (Enterobacter cloacae) [µg/mL] | MIC (Acinetobacter baumannii) [µg/mL] | Activity [2] [%] | IC50 (DNA gyrase [3]) [nM] | MIC (Escherichia coli [4]) [µg/mL] | MIC (Enterococcus faecium) [µg/mL] | MIC (Klebsiella pneumoniae) [µg/mL] | IC50 (DNA gyrase [5]) [nM] | MIC (Staphylococcus aureus [6]) [µg/mL] | MIC (Staphylococcus aureus [7]) [µg/mL] | MIC (Pseudomonas aeruginosa) [µg/mL] | IC50 [8] [nM] | microsomal CLint at 1 µM [9] [µL/min/mg] | half-life at 1 µM [10] [h] | microsomal CLint at 1 µM [11] [µL/min/mg] | half-life at 1 µM [12] [h] | Activity (Escherichia coli [13]) [%] |
| --- | --- | --- | --- | --- | --- | --- | --- | --- | --- | --- | --- | --- | --- | --- | --- | --- | --- | --- | --- | --- |
| Cc1[nH]c(C(=O)Nc2ccc(-c3noc(=O)[nH]3)cc2N2CCCC(CN)C2)c(Cl)c1Cl.Cl (configuration not stated) | 4 | 0.25 | 88 | > 64 | > 64 | 93 | 3.19 | > 64 | 2 | 2 | 24.1 | 2 | 4 | > 64 | 41.8 |  |  |  |  |  |
| Cc1[nH]c(C(=O)Nc2ccc(-c3noc(=O)[nH]3)cc2NC2CCNCC2)c(Cl)c1Cl.Cl | > 64 | > 64 |  | > 64 | > 64 | 101 | 9.66 | > 64 | > 64 | > 64 | 249 | > 64 | > 64 | > 64 | 1180 |  |  |  |  |  |
| Cc1[nH]c(C(=O)Nc2ccc(-c3noc(=O)[nH]3)cc2N2CCCC2)c(Cl)c1Cl | > 64 | < 0.031 | 119 | > 64 | > 64 | 99 | 12.6 | > 64 | 0.063 (≈ 0.149 µM) | > 64 |  | < 0.031 | 0.5 (≈ 1.18 µM) | > 64 | 2410 | 11 | 1.31 | 17.6 | 2.1 |  |
| Cc1[nH]c(C(=O)Nc2ccc(-n3nn[nH]c3=O)cc2N2CC[C@H](NC(=O)OC(C)(C)C)C2)c(Cl)c1Cl |  |  |  |  |  | 95 | 212 |  |  |  |  |  |  |  |  |  |  |  |  | 72 |
| Cc1[nH]c(C(=O)Nc2ccc(C(=O)NS(C)(=O)=O)cc2N2CCOCC2)c(Cl)c1Cl |  |  |  |  |  | 94 | 243 |  |  |  |  |  |  |  |  |  |  |  |  | 37 |
| Cc1[nH]c(C(=O)Nc2ccc(-c3nnn[nH]3)cc2N2CCCC(CN)C2)c(Cl)c1Cl.Cl (configuration not stated) | 16 | 8 | 117 | > 64 | > 64 | 91 | 2.16 | > 64 | 16 | 64 | 35 | > 64 | > 64 | > 64 | 60.3 |  |  |  |  |  |
| O=C(O)Cc1ccccc1Nc1c(Cl)cccc1Cl [DICLOFENAC] |  |  |  |  |  |  |  |  |  |  |  |  |  |  |  | 28.4 |  | 238 | 0.813 |  |
| Cc1[nH]c(C(=O)Nc2ccc(-n3nn[nH]c3=O)cc2N2Cc3ccccc3C2)c(Cl)c1Cl | 16 (≈ 34 µM) | 0.25 (≈ 0.532 µM) | 89 | > 64 | > 64 | 97 | 111 | > 64 | 0.5 (≈ 1.06 µM) | > 64 |  | > 64 | > 64 | > 64 |  | < 9.6 | 1.33 | 17.3 | > 2.42 | 105 |
| Cc1[nH]c(C(=O)Nc2ccc(-c3noc(=O)[nH]3)cc2N2CCN(c3ccccc3)CC2)c(Cl)c1Cl | 4 (≈ 7.79 µM) | 0.125 (≈ 0.243 µM) | 68 | > 64 | > 64 | 98 | 109 | > 64 | 4 (≈ 7.79 µM) | > 64 |  | 2 (≈ 3.9 µM) | 0.063 (≈ 0.123 µM) | > 64 |  | < 9.6 | > 2.42 | < 9.6 | > 2.42 | 71 |
| Cc1[nH]c(C(=O)Nc2ccc(-n3nn[nH]c3=O)cc2N2CC[C@H](N)C2)c(Cl)c1Cl.Cl | > 32 | 64 |  | > 32 | > 32 | 108 | 4.9 | > 32 | > 32 | > 32 | 121 | 64 | > 32 | > 32 |  |  |  |  |  | 26 |
| Cc1[nH]c(C(=O)Nc2ccc(-c3noc(=O)[nH]3)cc2N2CCCC(N)C2)c(Cl)c1Cl.Cl (configuration not stated) | > 64 | 8 | 95 | > 64 | > 64 | 91 | 2.49 | > 64 | 8 | 16 | 55.8 | > 64 | > 64 | > 64 | 145 |  |  |  |  |  |
| C[C@]12CC[C@H]3[C@@H](CCC4=CC(=O)CC[C@@]43C)[C@@H]1CC[C@@H]2O [TESTOSTERONE] |  |  |  |  |  |  |  |  |  |  |  |  |  |  |  | 169 | 0.378 | 60.9 | 0.137 |  |
| Cc1[nH]c(C(=O)Nc2ccc(-n3nn[nH]c3=O)cc2N2CCC(N)CC2)c(Cl)c1Cl.Cl | > 32 | > 32 |  | > 32 | > 32 | 103 | 3.96 | > 32 | > 32 | > 32 | 216 | > 32 | > 32 | > 32 | 11500 |  |  |  |  |  |
| Cc1[nH]c(C(=O)Nc2ccc(-c3noc(=O)[nH]3)cc2N2CCNCC2)c(Cl)c1Cl.Cl | > 64 | > 64 |  | > 64 | > 64 | 101 | 6.07 | > 64 | > 64 | > 64 |  | > 64 | > 64 | > 64 | 3150 |  |  |  |  |  |
